Here are results for one molecule from patent publication US9844535B2, “SHP2 inhibitors and methods of treating autoimmune and/or glomerulonephritis-associated diseases using SHP2 inhibitors” (Indiana University Research and Technology Corporation, priority 2013, dated 2017).

For this data set, the system named is human T cells isolated from SLE patients. The data set is described as follows: Cultured human SLE T cells: IFNγ secretion, proliferation, viability. Format: cell-based. The source says:
All SLE human cells in the following Examples were isolated from SLE patients diagnosed according to the American College of Rheumatology classification criteria and recruited from the Division of Rheumatology at Beth Israel Deaconess Medical Center, Boston, Mass. under IRB protocol 2006-P-0298. Healthy gender- and age-matched control cells were also used for the Examples herein. Briefly, peripheral venous blood was collected in heparin-lithium tubes and peripheral blood mononuclear cells were prepared with ficoll-Paque centrifugation, as previously described in Grammatikos et al., Clin Immunol. 2014; 150: 192-200.
Human T cells were purified from frozen peripheral blood mononuclear cells (PBMC) isolated from SLE or normal donor patients. Briefly, frozen PBMCs were thawed in a 37° C. water bath for 1 to 2 minutes, and then gently added to pre-warmed RPMI1640 medium with 10% FBS (total 10 ml). The cells were centrifuged at 2000 rpm for 5 minutes at room temperature. The cell pellet was washed with 5 ml of pre-warmed RPMI 1640 medium with 10% FBS three times, followed by a final D-PBS (no calcium, no magnesium buffer) wash. Human T cells were then purified by a Pan T Cell Isolation Kit (human) from Miltenyi Biotec, as described above.
The purity of isolated T cells routinely exceeded 94%. After purification, T cells were resuspended in RPMI1640 medium with 10% FBS and 1×10^5 cells/well in 100 ul total volume was loaded onto a 96-well plate, either left uncoated or precoated with anti-CD3 antibody (1 ug/ml) (OKT3; Biolegend). […]
For cell viability, an MTT (thiazolyl Blue tetrazolium Bromide, M2128, Sigma, St. Louis, Mo.) assay was employed. […] Spectrophotometric absorbance of the samples was assessed using a microplate reader at a wavelength of 595 nm. T cell numbers/proliferation was assessed by cell count using a hemocytometer. […] After mixing, 10 μl of the mixture was loaded onto the hemocytometer and the total average number of cells/well was calculated. […]

For `Cn1c(-c2cccc(NC(=O)C(=O)Nc3ccc(-c4ccsc4)cc3)c2)c(I)c2cc(C(=O)O)c(O)cc21` [11a-1], the T cell viability entry (human SLE T cell cultures) was “no differences in viability”. Besides, the “T cell proliferation in response to CD3” value (human SLE T cells, 48 hours, 10 μg/ml) was “reduced T cell proliferation”. Moreover, the “secretion of IFNγ in response to T cell activation” value (human SLE T cells, CD3 antibody, 48 hours, 10 μg/ml) is “significantly decreased the secretion of IFNγ activity”.
